# From PubChem BioAssay AID489017 (The Scripps Research Institute Molecular Screening Center, 2010)
# Active and inactive are the calls of the source. No rule for the calls is given here.
# Assays:
# Assay in all cases: off-target binding and CYP450 inhibition panel, profiling panel, selectivity assay for S1P4 antagonist project, biochemical, Ricerca HitProfilingScreen (AID 489017)
# Nicotinic Acetylcholine = settings: Ricerca receptor/enzyme binding panel plus CYP450, at 10 µM, hits give high values
# Adrenergic beta1 = settings: Ricerca receptor/enzyme binding panel plus CYP450, at 10 µM, hits give high values
# [1] = target: Cytochrome P450 2D6 (Homo sapiens) (UniProt P10635); settings: Ricerca receptor/enzyme binding panel plus CYP450; CYP450 2D6; at 10 µM; hits give high values
# Chain of Cytochrome P450 2D6 (Homo sapiens) (P10635 whole entry, looked up): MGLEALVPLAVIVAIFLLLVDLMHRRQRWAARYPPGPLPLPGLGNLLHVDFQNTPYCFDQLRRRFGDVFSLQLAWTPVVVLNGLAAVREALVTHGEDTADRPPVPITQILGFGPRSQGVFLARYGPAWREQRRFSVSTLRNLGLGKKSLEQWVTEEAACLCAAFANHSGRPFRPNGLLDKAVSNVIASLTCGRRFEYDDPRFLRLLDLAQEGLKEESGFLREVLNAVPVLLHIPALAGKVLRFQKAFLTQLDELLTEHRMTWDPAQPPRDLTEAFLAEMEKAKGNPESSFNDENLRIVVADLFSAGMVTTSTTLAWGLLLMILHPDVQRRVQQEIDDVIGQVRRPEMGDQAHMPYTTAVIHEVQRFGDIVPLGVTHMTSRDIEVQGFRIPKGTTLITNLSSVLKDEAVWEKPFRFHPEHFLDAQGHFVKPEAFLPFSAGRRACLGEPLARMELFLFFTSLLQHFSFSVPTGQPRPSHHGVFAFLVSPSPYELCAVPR
# [2] = target: Cytochrome P450 1A2 (Homo sapiens) (UniProt P05177); settings: Ricerca receptor/enzyme binding panel plus CYP450; CYP450 1A2; at 10 µM; hits give high values
# Chain of Cytochrome P450 1A2 (Homo sapiens) (P05177 whole entry, looked up): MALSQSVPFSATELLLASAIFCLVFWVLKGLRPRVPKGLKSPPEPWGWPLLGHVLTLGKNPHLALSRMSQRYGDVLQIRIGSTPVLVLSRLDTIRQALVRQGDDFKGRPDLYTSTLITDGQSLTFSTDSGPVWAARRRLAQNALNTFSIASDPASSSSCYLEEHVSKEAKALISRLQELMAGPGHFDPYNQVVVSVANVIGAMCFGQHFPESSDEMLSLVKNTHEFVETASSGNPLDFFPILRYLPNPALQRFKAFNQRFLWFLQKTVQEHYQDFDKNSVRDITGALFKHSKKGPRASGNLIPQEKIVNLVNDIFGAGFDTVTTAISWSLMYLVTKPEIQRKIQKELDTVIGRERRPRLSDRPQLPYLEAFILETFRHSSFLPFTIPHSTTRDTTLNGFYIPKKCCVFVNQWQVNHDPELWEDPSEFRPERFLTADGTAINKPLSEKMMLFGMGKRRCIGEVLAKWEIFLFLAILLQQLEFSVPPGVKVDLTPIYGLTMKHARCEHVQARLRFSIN
# Sodium Channel = settings: Ricerca receptor/enzyme binding panel plus CYP450, site 2, at 10 µM, hits give high values
# [3] = target: Voltage-gated inwardly rectifying potassium channel KCNH2 (Homo sapiens) (UniProt Q12809); settings: Ricerca receptor/enzyme binding panel plus CYP450; Potassium Channel hERG; at 10 µM; hits give high values
# GABAA Central = settings: at 10 µM, hits give high values
# Cannabinoid CB1 = settings: Ricerca receptor/enzyme binding panel plus CYP450, at 10 µM, hits give high values
# Adenosine A2A = settings: Ricerca receptor/enzyme binding panel plus CYP450, at 10 µM, hits give high values
# [4] = target: Alpha-2A adrenergic receptor (Homo sapiens) (UniProt P08913); settings: Ricerca receptor/enzyme binding panel plus CYP450; Adrenergic alpha2A; at 10 µM; hits give high values
# Chain of Alpha-2A adrenergic receptor (Homo sapiens) (P08913 whole entry, looked up): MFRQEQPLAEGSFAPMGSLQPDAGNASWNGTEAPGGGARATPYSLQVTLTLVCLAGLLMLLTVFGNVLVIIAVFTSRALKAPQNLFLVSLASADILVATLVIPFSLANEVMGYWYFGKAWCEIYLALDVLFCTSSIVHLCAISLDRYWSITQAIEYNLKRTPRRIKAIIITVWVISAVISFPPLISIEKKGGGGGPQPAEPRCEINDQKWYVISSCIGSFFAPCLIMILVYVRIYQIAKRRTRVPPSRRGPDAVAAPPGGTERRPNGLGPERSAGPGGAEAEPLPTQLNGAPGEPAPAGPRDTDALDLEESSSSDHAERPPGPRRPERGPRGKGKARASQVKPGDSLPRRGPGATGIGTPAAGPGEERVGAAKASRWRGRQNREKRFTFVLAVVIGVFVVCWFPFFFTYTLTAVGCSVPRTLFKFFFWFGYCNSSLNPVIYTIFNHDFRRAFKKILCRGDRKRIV
# [5] = target: 5-hydroxytryptamine receptor 2B (Homo sapiens) (UniProt P41595); settings: Ricerca receptor/enzyme binding panel plus CYP450; Serotonin (5-Hydroxytryptamine) 5-HT2B; at 10 µM; hits give high values
# Chain of 5-hydroxytryptamine receptor 2B (Homo sapiens) (P41595 whole entry, looked up): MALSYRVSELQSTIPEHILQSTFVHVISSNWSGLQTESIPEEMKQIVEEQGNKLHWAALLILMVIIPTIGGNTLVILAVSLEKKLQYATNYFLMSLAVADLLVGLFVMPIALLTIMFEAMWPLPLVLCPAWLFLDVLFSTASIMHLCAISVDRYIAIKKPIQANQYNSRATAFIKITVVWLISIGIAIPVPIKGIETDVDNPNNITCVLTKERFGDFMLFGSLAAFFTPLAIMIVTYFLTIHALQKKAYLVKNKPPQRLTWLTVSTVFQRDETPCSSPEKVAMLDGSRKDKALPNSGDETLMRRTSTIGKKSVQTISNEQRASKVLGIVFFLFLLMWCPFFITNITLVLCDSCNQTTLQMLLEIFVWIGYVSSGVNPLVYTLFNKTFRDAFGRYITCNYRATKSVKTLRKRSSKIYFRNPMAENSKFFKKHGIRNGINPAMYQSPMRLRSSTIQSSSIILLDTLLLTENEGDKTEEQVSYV
# Opiate mu (OP3, MOP) = settings: Ricerca receptor/enzyme binding panel plus CYP450, at 10 µM, hits give high values
# [6] = target: Beta-2 adrenergic receptor (Homo sapiens) (UniProt P07550); settings: Ricerca receptor/enzyme binding panel plus CYP450; Adrenergic beta2; at 10 µM; hits give high values
# Chain of Beta-2 adrenergic receptor (Homo sapiens) (P07550 whole entry, looked up): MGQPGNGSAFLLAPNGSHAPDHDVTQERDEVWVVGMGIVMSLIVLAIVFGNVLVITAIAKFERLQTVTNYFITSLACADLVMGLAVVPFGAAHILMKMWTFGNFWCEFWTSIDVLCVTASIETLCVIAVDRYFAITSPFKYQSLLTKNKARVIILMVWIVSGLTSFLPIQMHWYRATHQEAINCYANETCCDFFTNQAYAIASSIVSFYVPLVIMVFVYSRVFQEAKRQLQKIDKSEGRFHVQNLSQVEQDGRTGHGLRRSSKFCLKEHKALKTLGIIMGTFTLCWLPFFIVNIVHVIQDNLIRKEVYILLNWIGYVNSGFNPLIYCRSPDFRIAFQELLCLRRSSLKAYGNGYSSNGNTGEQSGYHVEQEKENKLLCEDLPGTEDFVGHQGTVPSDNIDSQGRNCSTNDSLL
# [7] = test system: Norepinephrine Transporter (NET); settings: Ricerca receptor/enzyme binding panel plus CYP450, at 10 µM, hits give high values
# [8] = test system: Alpha-2A adrenergic receptor (Homo sapiens) + Histamine H1 receptor (Homo sapiens) + Mu-type opioid receptor (Homo sapiens); settings: Ricerca receptor/enzyme binding panel plus CYP450; at 10 µM; hits give high values
# Adenosine A1 = settings: Ricerca receptor/enzyme binding panel plus CYP450, at 10 µM, hits give high values
# Calcium Channel L-Type = settings: Ricerca receptor/enzyme binding panel plus CYP450, Dihydropyridine site, at 10 µM, hits give high values
# Prostanoid EP4 = settings: Ricerca receptor/enzyme binding panel plus CYP450, at 10 µM, hits give high values
# Dopamine D2S = settings: Ricerca receptor/enzyme binding panel plus CYP450, at 10 µM, hits give high values
# Sigma 1 = settings: Ricerca receptor/enzyme binding panel plus CYP450, at 10 µM, hits give high values
# CYP450 2C19 = settings: Ricerca receptor/enzyme binding panel plus CYP450, at 10 µM, hits give high values
# [9] = target: Muscarinic acetylcholine receptor M3 (Homo sapiens) (UniProt P20309); settings: Ricerca receptor/enzyme binding panel plus CYP450, at 10 µM, hits give high values
# Chain of Muscarinic acetylcholine receptor M3 (Homo sapiens) (P20309 whole entry, looked up): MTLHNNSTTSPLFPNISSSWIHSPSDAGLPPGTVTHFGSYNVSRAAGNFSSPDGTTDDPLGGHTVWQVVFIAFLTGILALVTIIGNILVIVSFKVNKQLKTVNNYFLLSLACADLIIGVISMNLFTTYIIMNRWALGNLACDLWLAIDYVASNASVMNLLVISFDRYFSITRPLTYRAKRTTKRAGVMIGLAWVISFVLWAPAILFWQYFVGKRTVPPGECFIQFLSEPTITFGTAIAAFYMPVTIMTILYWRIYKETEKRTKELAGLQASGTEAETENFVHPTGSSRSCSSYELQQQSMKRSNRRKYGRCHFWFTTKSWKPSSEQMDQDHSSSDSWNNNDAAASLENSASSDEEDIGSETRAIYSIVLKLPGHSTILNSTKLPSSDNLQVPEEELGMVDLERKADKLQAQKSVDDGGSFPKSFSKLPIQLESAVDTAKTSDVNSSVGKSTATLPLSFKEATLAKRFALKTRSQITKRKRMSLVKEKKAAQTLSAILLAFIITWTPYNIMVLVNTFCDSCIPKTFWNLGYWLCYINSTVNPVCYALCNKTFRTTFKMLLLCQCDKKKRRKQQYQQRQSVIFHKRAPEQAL
# [10] = target: D(1A) dopamine receptor (Homo sapiens) (UniProt P21728); settings: Ricerca receptor/enzyme binding panel plus CYP450; Dopamine D1; at 10 µM; hits give high values
# Chain of D(1A) dopamine receptor (Homo sapiens) (P21728 whole entry, looked up): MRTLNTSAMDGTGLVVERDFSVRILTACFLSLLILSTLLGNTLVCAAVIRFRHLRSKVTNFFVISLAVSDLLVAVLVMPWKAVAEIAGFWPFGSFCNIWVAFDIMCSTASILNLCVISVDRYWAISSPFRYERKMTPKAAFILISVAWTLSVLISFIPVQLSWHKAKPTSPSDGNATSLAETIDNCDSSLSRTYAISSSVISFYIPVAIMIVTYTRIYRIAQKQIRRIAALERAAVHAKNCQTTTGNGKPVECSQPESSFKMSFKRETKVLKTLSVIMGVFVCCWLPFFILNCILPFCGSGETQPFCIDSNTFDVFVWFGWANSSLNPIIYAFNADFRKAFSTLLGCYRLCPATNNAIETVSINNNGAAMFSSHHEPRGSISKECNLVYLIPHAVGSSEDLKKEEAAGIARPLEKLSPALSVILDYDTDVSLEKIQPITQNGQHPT
# [11] = target: Cytochrome P450 2C9 (Homo sapiens) (UniProt P11712); settings: Ricerca receptor/enzyme binding panel plus CYP450; CYP450 2C9; at 10 µM; hits give high values
# Chain of Cytochrome P450 2C9 (Homo sapiens) (P11712 whole entry, looked up): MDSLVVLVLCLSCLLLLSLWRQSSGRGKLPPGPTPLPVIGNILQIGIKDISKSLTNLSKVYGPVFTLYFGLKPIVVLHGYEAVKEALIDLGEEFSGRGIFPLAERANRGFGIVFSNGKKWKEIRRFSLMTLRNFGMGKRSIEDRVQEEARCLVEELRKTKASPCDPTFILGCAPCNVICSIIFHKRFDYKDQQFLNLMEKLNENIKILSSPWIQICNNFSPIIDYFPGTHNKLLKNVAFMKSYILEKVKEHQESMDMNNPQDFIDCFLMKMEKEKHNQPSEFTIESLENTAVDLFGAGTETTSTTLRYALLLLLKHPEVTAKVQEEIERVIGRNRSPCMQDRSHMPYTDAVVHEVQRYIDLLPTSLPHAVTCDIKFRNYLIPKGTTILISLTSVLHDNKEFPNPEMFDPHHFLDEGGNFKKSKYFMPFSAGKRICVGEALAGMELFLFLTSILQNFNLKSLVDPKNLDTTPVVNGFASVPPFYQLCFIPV
# Adrenergic alpha1B = settings: Ricerca receptor/enzyme binding panel plus CYP450, at 10 µM, hits give high values
# [12] = target: Cytochrome P450 3A4 (Homo sapiens) (UniProt P08684); settings: Ricerca receptor/enzyme binding panel plus CYP450; CYP450 3A4; at 10 µM; hits give high values
# Chain of Cytochrome P450 3A4 (Homo sapiens) (P08684 whole entry, looked up): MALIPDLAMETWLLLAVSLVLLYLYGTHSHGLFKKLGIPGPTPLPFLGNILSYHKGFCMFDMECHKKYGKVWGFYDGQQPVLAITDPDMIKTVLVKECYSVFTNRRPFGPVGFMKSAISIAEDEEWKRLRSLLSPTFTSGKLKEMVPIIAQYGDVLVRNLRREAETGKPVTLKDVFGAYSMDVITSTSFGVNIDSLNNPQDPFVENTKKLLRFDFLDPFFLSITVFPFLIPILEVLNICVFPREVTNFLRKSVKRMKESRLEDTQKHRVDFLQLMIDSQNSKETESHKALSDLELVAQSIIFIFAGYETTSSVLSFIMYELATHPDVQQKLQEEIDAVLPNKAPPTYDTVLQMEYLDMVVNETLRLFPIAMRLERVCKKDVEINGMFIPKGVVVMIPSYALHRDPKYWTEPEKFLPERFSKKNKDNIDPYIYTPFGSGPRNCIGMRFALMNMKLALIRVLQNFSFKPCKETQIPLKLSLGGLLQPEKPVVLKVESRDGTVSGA
# Glutamate NMDA = settings: Ricerca receptor/enzyme binding panel plus CYP450, Phencyclidine site, at 10 µM, hits give high values
# Adrenergic alpha1A = settings: Ricerca receptor/enzyme binding panel plus CYP450, at 10 µM, hits give high values
# [13] = target: Muscarinic acetylcholine receptor M2 (Homo sapiens) (UniProt P08172); settings: Ricerca receptor/enzyme binding panel plus CYP450, at 10 µM, hits give high values
# Chain of Muscarinic acetylcholine receptor M2 (Homo sapiens) (P08172 whole entry, looked up): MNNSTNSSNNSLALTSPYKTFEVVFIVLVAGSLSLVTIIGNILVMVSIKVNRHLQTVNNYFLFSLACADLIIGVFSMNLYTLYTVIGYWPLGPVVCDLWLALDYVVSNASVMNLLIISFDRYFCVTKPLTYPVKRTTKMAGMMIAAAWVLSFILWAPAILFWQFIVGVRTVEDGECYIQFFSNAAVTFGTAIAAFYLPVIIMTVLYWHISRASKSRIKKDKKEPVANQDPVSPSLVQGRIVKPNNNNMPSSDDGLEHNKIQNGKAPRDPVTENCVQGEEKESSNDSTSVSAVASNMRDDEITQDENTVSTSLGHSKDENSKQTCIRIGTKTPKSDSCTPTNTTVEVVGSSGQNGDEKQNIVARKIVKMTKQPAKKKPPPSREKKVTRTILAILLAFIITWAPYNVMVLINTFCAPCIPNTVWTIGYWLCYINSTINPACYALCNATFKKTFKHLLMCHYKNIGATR
# Histamine H1 = settings: Ricerca receptor/enzyme binding panel plus CYP450, at 10 µM, hits give high values
smiles,measurement,setting,value
CCc1cccc(CC)c1NC(=O)c1ccc(-c2cc(Cl)ccc2Cl)o1,inhibition,Nicotinic Acetylcholine,-12% (inactive)
same,inhibition,Adrenergic beta1,0% (inactive)
same,inhibition,[1],1% (inactive)
same,inhibition,[2],27% (inactive)
same,inhibition,Sodium Channel,43% (inactive)
same,inhibition,[3],10% (inactive)
same,inhibition,"GABAA Central; Ricerca receptor/enzyme binding panel plus CYP450, Flunitrazepam site",7% (inactive)
same,inhibition,"GABAA Central; Ricerca receptor/enzyme binding panel plus CYP450, Muscimol site",8% (inactive)
same,inhibition,Cannabinoid CB1,15% (inactive)
same,inhibition,Adenosine A2A,-6% (inactive)
same,inhibition,[4],18% (inactive)
same,inhibition,[5],40% (inactive)
same,inhibition,"Opiate mu (OP3, MOP)",8% (inactive)
same,inhibition,[6],11% (inactive)
same,inhibition,[7],17% (inactive)
same,inhibition,[8],-4% (inactive)
same,inhibition,Adenosine A1,0% (inactive)
same,inhibition,Calcium Channel L-Type,12% (inactive)
same,inhibition,Prostanoid EP4,27% (inactive)
same,inhibition,Dopamine D2S,13% (inactive)
same,inhibition,Sigma 1,-7% (inactive)
same,inhibition,CYP450 2C19,37% (inactive)
same,inhibition,[9],2% (inactive)
same,inhibition,[10],5% (inactive)
same,inhibition,[11],51%
same,inhibition,Adrenergic alpha1B,-6% (inactive)
same,inhibition,[12],22% (inactive)
same,inhibition,Glutamate NMDA,1% (inactive)
same,inhibition,Adrenergic alpha1A,-3% (inactive)
same,inhibition,[13],-3% (inactive)
same,inhibition,Histamine H1,30% (inactive)
